In PubChem BioAssay (NCI):
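How tested: cells in 96-well plates exposed to compound for 48 hours at five concentrations. GI50 = concentration required for 50% inhibition of growth. The concentration for full growth arrest is given as TGI.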

Legend:
Assay in all cases: DTP human tumour cell line panel, 48 h
[1] = test system: HT29 colon
[2] = test system: ACHN renal
[3] = test system: K-562 leukemia
[4] = test system: UACC-257 melanoma
[5] = test system: HCT-116 colon
[6] = test system: SK-MEL-5 melanoma
[7] = test system: HCC-2998 colon
[8] = test system: U251 CNS
[9] = test system: MCF7 breast
[10] = test system: SF-539 CNS
[11] = test system: RPMI-8226 leukemia

Structure (SMILES)	TGI [1] [µM]	TGI [2] [µM]	TGI [3] [µM]	TGI [4] [µM]	TGI [5] [µM]	TGI [6] [µM]	TGI [7] [µM]	TGI [8] [µM]	TGI [9] [µM]	TGI [10] [µM]	TGI [11] [µM]	GI50 [1] [µM]	GI50 [2] [µM]	GI50 [4] [µM]	GI50 [10] [µM]	GI50 [11] [µM]
COc1ccc2c(c1)/C(=C(\C(Cl)=C(\Cl)N1CCCCC1)[N+](=O)[O-])N2	> 100	> 100	> 100	> 100	> 100	> 100	> 100	> 100	> 100	–	–	–	–	–	–	–
CCCCCCc1nn2c(-c3ccc(C)cc3)nnc2s1	> 100	> 100	> 100	> 100	> 100	> 100	–	> 100	> 100	> 100	> 100	–	–	–	–	–
CSC1=N/C(=C\c2cccs2)C(=O)N1CN1CCOCC1	> 100	> 100	> 100	–	> 100	> 100	–	> 100	> 100	–	> 100	–	–	–	–	–
C=CCN1CCC(OC(=O)C(O)(/C=C\CC)C2CCCC2)CC1 (stereo unspecified)	> 100	> 100	> 100	> 100	> 100	> 100	–	> 100	> 100	> 100	> 100	–	–	–	–	–
Cc1ccc2nc3c(C(=O)NCCN(C)C)cccc3cc2c1	4.79	–	7.83	4.56	6.71	3.41	14.8	11.7	11.6	10.1	7.12	–	–	–	–	–
C#CCNC(=O)CCC(N)C(=O)O (stereo unspecified)	> 100	–	> 100	> 100	> 100	> 100	> 100	> 100	> 100	> 100	> 100	–	–	–	–	–
C=C1CC(OC(C)=O)/C=C(/C)CCC(C(C)(C)O)CC1O (stereo unspecified)	> 100	> 100	–	> 100	> 100	> 100	> 100	> 100	> 100	> 100	–	–	–	–	–	–
COC1/C=C\C=C(/C)C(=O)NC2=CC(=O)C=C(C2=O)C(OC)C(C)CC(OC)C(OC)C(C)/C=C(/C)C1OC(N)=O (stereo unspecified)	12.1	–	1.44	19.6	10.3	20.9	15.9	25.8	8.37	20.4	12.1	–	–	–	–	–
COc1ccc2c(c1)/C(=C(\C(Cl)=C(Cl)Cl)[N+](=O)[O-])N2	> 100	> 100	> 100	> 100	> 100	> 100	> 100	> 100	> 100	–	–	–	–	–	–	–
CCN(CC)CCNc1ccc([N+](=O)[O-])c2nc3ccccc3c(N)c12	2.28	3.75	1.75	7.37	1.5	1.1	–	> 10	–	1.84	6.18	–	–	–	–	–
O=C1CCCCC/C=C2/CC[C@H](Sc3ccccc3)[C@@H]12	> 100	> 100	> 100	> 100	> 100	> 100	–	> 100	–	–	> 100	–	–	–	–	–
COc1ccc2nc(-c3ccc(OC(=O)N(C)C)cc3)cn2c1	> 100	> 100	> 100	> 100	> 100	> 100	> 100	> 100	> 100	–	–	–	–	–	–	–
CSc1ccc2c(c1)c(CCN)c(C)n2Cc1ccc(Cl)c(Cl)c1	2.92	3.08	–	3.74	–	–	–	–	–	3.04	4.66	1.49	1.59	2.03	1.6	2.14
COC(=O)N1CC[C@@H]2CCC=C(c3cccc4c3OCO4)[C@@H]21	> 100	> 100	> 100	> 100	> 100	> 100	> 100	> 100	> 100	> 100	–	–	–	–	–	–
O=c1oc2ncccc2n1Cc1ccc([N+](=O)[O-])cc1	> 100	> 100	> 100	> 100	> 100	> 100	–	> 100	> 100	> 100	> 100	–	–	–	–	–
NCCCNCCSSCc1ccccc1CSSCCNCCCN	27.4	> 100	> 100	> 100	–	> 100	> 100	> 100	–	> 100	> 100	–	–	–	–	–
O=C(O)CC(NC(=O)C(F)(F)F)C(=O)NC1Cc2ccccc2OC1=O (stereo unspecified)	> 100	> 100	> 100	> 100	–	> 100	> 100	> 100	> 100	> 100	> 100	–	–	–	–	–
CSCCC(NC(=O)C(Cc1ccccc1)NC(=O)CNC(=O)CNC(=O)C(N)Cc1ccc(O)cc1)C(=O)O (stereo unspecified)	> 100	–	> 100	> 100	> 100	> 100	> 100	> 100	> 100	> 100	–	–	–	–	–	–
CC(=O)OC1C=CC2CCN3C(=O)c4cc5c(cc4[C@H]1C23)OCO5 (stereo partly specified)	> 100	> 100	> 100	> 100	> 100	–	–	> 100	–	> 100	> 100	–	–	–	–	–
COCCO	> 100	–	> 100	> 100	> 100	> 100	> 100	> 100	> 100	> 100	> 100	–	–	–	–	–
COc1cc(N=C(N)N=C(N)N)c2ncccc2c1	> 100	> 100	–	> 100	> 100	> 100	> 100	> 100	> 100	> 100	–	–	–	–	–	–
O=C(N=Nc1ccc([N+](=O)[O-])cc1)NNc1ccc([N+](=O)[O-])cc1	61.8	38.8	45.8	67.5	30.3	31.2	27.3	59.7	22.9	–	58.2	–	–	–	–	–
